Measured values from article PMC4867616, “Imaging of Cerebral Amyloid Angiopathy with Bivalent ^99mTc-Hydroxamamide Complexes” (Scientific Reports, 2016).

Experiments:
[1] = Ex vivo biodistribution in normal mice; design: species or system ddY mice; details: i.v., mean (SD), 5 animals
Description: To evaluate brain uptake of ^99mTc-Ham complexes, biodistribution experiments of ^99mTc-Ham complexes were performed in normal mice. We selected ^18F-florbetapir as a control and compared the results of ^99mTc-Ham complexes with that of ^18F-florbetapir (Fig. 2). The brain uptake of [^99mTc]SB1A, [^99mTc]SB2A, [^99mTc]BT1B, and [^99mTc]BT2B at 2 min postinjection was 0.37, 0.28, 0.36, and 0.37% injected dose (ID)/g, respectively. The radioactivity in the brains remained low until 60 min postinjection. The results of the biodistribution study are shown in Table S1 in Supplementary information.
A saline solution (100 μL) of ^99mTc-Ham complexes (20 kBq) containing EtOH (10 μL) was injected directly into the tail vein of ddY mice (male, 5 weeks old). The mice were sacrificed at 2, 10, 30, and 60 min postinjection. The organs of interest were removed and weighed, and radioactivity was measured using a γ counter (PerkinElmer). The %ID/g of samples was calculated by comparing the sample counts with the count of the diluted initial dose.
*Corresponding author: M. Ono. Address: 46-29 Yoshida Shimoadachi-cho, Sakyo-ku, Kyoto 606-8501, Japan, Phone: +81-75-753-4608, Fax: +81-75-753-4568, E-mail: ono@pharm.kyoto-u.ac.jp. Ex vivo biodistribution in normal mice. A saline solution (100 μL) of ^99mTc-Ham complexes (20 kBq) containing EtOH (10 μL) was injected directly into the tail vein of ddY mice (male, 5 weeks old). The mice were sacrificed at 2, 10, 30, and 60 min postinjection. The organs of interest were removed and weighed, and radioactivity was measured using a γ counter (Wallac 1470 Wizard; PerkinElmer, Massachusetts, USA). Percentage dose per organ was calculated by comparing the tissue counts to suitably diluted aliquots of the injected material. The %dose/g of samples was calculated by comparing the sample counts with the count of the diluted initial dose.

[2] = target: T1, Aβ depositions in Tg2576 mouse brain (Homo sapiens, UniProt P05067); assay: Ex vivo autoradiography using Tg2576 and wild-type mice; assay type: in vivo
T1 construct: Aβ(1–40) aggregates, the predominant amyloid found in CAA; tissue Taconic Farms, Inc. (New York, USA); host or cells: brain of living female Tg2576 transgenic mice
Description: Tg2576 transgenic mice (female, 29 months old) and wild-type mice (female, 29 months old) were used as the AD model and age-matched control, respectively. A saline solution (150 μL) of [^99mTc]SB2A or [^99mTc]BT2B (18.5 MBq) containing EtOH (30 μL) was injected through the tail vein. The mice were sacrificed at 30 min postinjection. The brains were immediately removed, embedded in carboxymethylcellulose solution and then frozen in a dry ice/hexane bath. Sections of 30 μm were cut and exposed to a BAS imaging plate (Fuji Film) overnight. Autoradiographic images were obtained using a BAS5000 scanner system (Fuji Film). After autoradiographic examination, the same sections were stained by thioflavin-S to confirm the presence of Aβ depositions. For thioflavin-S fluorescent staining, the sections were immersed in a 100 μM thioflavin-S solution containing 50% EtOH for 3 min, washed in 50% EtOH for 1 min two times, and examined using a microscope (Keyence Corp.) equipped with a GFP-BP filter set. Additionally, the same sections were immunostained by anti-CD31 antibody to confirm the presence of endothelial cells. For immunohistochemical staining of CD31, the sections were incubated in PBST for 5 min three times, and incubated with anti-CD31 primary antibody (SZ31; Abcam, Cambridgeshire, U.K., dilution 1:50) at room temperature overnight. After three 5-min incubations in PBST, anti-rabbit secondary antibody (Dako, California, USA) incubation was carried out at room temperature for 3 h. Subsequently, the sections were incubated in PBST for 5 min three times, and incubated with diaminobenzidine (Merck) as a chromogen for 5 min. After washing with water, the sections were observed under a microscope (Keyence Corp.).
Ex vivo autoradiography using Tg2576 and wild-type mice. Tg2576 transgenic mice (female, 29 months old) and wild-type mice (female, 29 months old) were used as the Alzheimer’s model and age-matched control, respectively. A saline solution (150 µL) of [^99mTc]BT2B (18.5 MBq) containing ethanol (30 µL) was injected through the tail vein. […]

T1 sequence (P05067 672-711 limits assumed): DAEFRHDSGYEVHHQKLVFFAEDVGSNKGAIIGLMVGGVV

CN(C)c1ccc(/C=C/c2ccc(C3=N[O][99Tc-]4(=[O])([NH]3)[NH2+]C(c3ccc(/C=C/c5ccc(N(C)C)cc5)cc3)=N[O]4)cc2)cc1 (single isomer, unassigned) [[^99mTc]SB2A]
Biodistribution of radioactivity, Heart ([1]; 2 min after injection): 12.64 (1.59) % injected dose per gram
Biodistribution of radioactivity, Intestine ([1]; 2 min after injection): 1.52 (0.25) % injected dose per gram
Biodistribution of radioactivity, Kidney ([1]; 2 min after injection): 5.03 (0.52) % injected dose per gram
Biodistribution of radioactivity, Liver ([1]; 2 min after injection): 25.52 (1.67) % injected dose per gram
Biodistribution of radioactivity, Lung ([1]; 2 min after injection): 14.35 (1.86) % injected dose per gram
Biodistribution of radioactivity, Pancreas ([1]; 2 min after injection): 3.35 (0.60) % injected dose per gram
Biodistribution of radioactivity, Spleen ([1]; 2 min after injection): 10.76 (0.96) % injected dose per gram
Biodistribution of radioactivity, Stomach ([1]; 2 min after injection): 3.15 (0.56) % injected dose per organ
Biodistribution of radioactivity, Heart ([1]; 10 min after injection): 6.57 (0.92) % injected dose per gram
Biodistribution of radioactivity, Intestine ([1]; 10 min after injection): 1.71 (0.11) % injected dose per gram
Biodistribution of radioactivity, Kidney ([1]; 10 min after injection): 3.57 (0.41) % injected dose per gram
Biodistribution of radioactivity, Liver ([1]; 10 min after injection): 29.35 (2.85) % injected dose per gram
Biodistribution of radioactivity, Lung ([1]; 10 min after injection): 7.79 (0.50) % injected dose per gram
Biodistribution of radioactivity, Pancreas ([1]; 10 min after injection): 2.12 (0.08) % injected dose per gram
Biodistribution of radioactivity, Spleen ([1]; 10 min after injection): 11.24 (2.26) % injected dose per gram
Biodistribution of radioactivity, Stomach ([1]; 10 min after injection): 8.78 (1.32) % injected dose per organ
Biodistribution of radioactivity, Heart ([1]; 30 min after injection): 8.58 (1.32) % injected dose per gram
Biodistribution of radioactivity, Intestine ([1]; 30 min after injection): 2.64 (0.36) % injected dose per gram
Biodistribution of radioactivity, Kidney ([1]; 30 min after injection): 3.61 (0.29) % injected dose per gram
Biodistribution of radioactivity, Liver ([1]; 30 min after injection): 27.04 (3.90) % injected dose per gram
Biodistribution of radioactivity, Lung ([1]; 30 min after injection): 7.26 (1.02) % injected dose per gram
Biodistribution of radioactivity, Pancreas ([1]; 30 min after injection): 2.06 (0.11) % injected dose per gram
Biodistribution of radioactivity, Spleen ([1]; 30 min after injection): 8.91 (3.26) % injected dose per gram
Biodistribution of radioactivity, Stomach ([1]; 30 min after injection): 16.13 (2.33) % injected dose per organ
Biodistribution of radioactivity, Heart ([1]; 60 min after injection): 8.27 (1.19) % injected dose per gram
Biodistribution of radioactivity, Intestine ([1]; 60 min after injection): 4.05 (0.55) % injected dose per gram
Biodistribution of radioactivity, Kidney ([1]; 60 min after injection): 3.39 (0.20) % injected dose per gram
Biodistribution of radioactivity, Liver ([1]; 60 min after injection): 24.95 (3.38) % injected dose per gram
Biodistribution of radioactivity, Lung ([1]; 60 min after injection): 6.48 (0.49) % injected dose per gram
Biodistribution of radioactivity, Pancreas ([1]; 60 min after injection): 1.83 (0.07) % injected dose per gram
Biodistribution of radioactivity, Spleen ([1]; 60 min after injection): 7.58 (2.60) % injected dose per gram
Biodistribution of radioactivity, Stomach ([1]; 60 min after injection): 14.72 (4.51) % injected dose per organ
Ex vivo autoradiography labeling of Aβ depositions in transgenic mice ([2]; Tg2576 mice (29 months old) vs wild-type, i.v., brains removed at 30 min postinjection): intensive labeling of Aβ depositions
Selectivity for vascular versus parenchymal amyloid aggregates (ex vivo autoradiography, thioflavin-S and anti-CD31 staining) ([2]; Tg2576 mice, 30 min postinjection): selectively bound to amyloid aggregates deposited along vessels but not within parenchyma
